Laboratory results from ChEMBL document CHEMBL3399947, “Structure activity relationship of selective GABA uptake inhibitors” (Bioorg Med Chem, 2015).

What was measured:
Assay type in all cases: cell-based
Settings in all cases: read-out: IC50
GABA transporter 3 = target: T1, GABA transporter 3 (Mus musculus, UniProt P31649); experiment: Inhibition of mouse mGAT3 expressed in HEK293 cells assessed as inhibition of [3H]GABA uptake after 3 mins incubation by TopCount microplate scintillation counting analysis
T1 sequence (P31649 whole entry): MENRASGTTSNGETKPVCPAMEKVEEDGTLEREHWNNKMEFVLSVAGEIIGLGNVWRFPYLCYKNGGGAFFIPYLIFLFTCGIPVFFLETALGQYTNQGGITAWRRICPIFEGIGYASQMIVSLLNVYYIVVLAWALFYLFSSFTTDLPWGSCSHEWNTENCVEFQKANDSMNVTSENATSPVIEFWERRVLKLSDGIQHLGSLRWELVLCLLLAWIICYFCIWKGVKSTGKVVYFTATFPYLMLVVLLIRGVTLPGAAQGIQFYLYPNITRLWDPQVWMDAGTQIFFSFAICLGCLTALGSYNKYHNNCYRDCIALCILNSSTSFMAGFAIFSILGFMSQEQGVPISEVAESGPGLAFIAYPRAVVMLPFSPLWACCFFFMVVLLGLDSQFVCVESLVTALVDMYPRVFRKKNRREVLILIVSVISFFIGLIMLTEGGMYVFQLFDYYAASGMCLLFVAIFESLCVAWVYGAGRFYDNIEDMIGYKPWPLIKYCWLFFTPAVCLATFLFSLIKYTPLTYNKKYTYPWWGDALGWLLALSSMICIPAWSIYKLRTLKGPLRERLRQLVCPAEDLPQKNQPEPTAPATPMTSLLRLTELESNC

[1] = target: Sodium- and chloride-dependent GABA transporter 1 (Mus musculus, UniProt P31648); experiment: Inhibition of mouse mGAT1 expressed in HEK293 cells assessed as inhibition of [3H]GABA uptake after 3 mins incubation by TopCount microplate scintillation counting analysis
GABA transporter 4 = target: T2, GABA transporter 4 (Mus musculus, UniProt P31650); experiment: Inhibition of mouse mGAT4 expressed in HEK293 cells assessed as inhibition of [3H]GABA uptake after 3 mins incubation by TopCount microplate scintillation counting analysis
T2 sequence (P31650 whole entry): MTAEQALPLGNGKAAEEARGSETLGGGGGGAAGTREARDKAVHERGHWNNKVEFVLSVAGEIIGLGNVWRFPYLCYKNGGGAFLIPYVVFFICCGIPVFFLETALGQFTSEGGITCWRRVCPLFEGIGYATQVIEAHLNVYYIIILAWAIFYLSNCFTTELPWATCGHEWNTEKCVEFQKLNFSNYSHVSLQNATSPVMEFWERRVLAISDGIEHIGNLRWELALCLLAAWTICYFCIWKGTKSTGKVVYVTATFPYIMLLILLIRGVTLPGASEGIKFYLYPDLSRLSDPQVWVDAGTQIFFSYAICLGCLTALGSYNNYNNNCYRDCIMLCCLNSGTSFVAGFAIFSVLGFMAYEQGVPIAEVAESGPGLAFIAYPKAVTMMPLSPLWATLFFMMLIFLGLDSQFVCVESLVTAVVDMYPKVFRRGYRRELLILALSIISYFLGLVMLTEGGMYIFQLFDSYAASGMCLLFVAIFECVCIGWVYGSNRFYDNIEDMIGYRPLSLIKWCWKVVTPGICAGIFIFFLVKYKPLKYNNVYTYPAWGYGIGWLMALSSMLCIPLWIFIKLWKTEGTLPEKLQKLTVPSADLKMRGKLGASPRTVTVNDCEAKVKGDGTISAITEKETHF

GABA transporter 2 = target: T3, GABA transporter 2 (Mus musculus, UniProt P31651); experiment: Inhibition of mouse mGAT2 expressed in HEK293 cells assessed as inhibition of [3H]GABA uptake after 3 mins incubation by TopCount microplate scintillation counting analysis
T3 sequence (P31651 whole entry): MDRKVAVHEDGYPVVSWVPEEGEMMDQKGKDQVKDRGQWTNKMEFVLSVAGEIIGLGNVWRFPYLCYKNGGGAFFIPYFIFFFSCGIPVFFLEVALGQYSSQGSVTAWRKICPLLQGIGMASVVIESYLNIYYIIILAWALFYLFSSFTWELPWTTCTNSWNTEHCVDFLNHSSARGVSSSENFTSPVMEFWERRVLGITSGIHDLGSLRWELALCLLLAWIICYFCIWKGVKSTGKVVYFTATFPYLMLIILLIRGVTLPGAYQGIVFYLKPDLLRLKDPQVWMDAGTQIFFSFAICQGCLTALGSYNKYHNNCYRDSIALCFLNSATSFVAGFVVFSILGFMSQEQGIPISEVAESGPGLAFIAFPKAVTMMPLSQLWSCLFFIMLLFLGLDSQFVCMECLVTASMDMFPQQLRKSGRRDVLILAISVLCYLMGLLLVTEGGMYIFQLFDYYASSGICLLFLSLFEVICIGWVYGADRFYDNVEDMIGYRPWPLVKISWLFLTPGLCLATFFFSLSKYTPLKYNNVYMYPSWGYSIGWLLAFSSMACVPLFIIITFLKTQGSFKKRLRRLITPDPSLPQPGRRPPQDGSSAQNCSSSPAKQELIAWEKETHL

Row | Structure (SMILES) | IC50 (GABA transporter 3) | IC50 [1] | IC50 (GABA transporter 4) | IC50 (GABA transporter 2)
1 | CN(CCC=C1c2ccccc2CCc2ccccc21)[C@@H]1CCCC[C@H]1C(=O)O (racemic) | 985 µM | 972 µM | 844 µM | 125 µM
2 | O=C(O)C1CN(CCON=C(c2ccccc2)c2ccccc2)CCN1 (racemic) | > 1000 µM | 216 µM | > 1000 µM | > 1000 µM
3 | O=C(O)C1CN(CCOC(c2ccc(C(F)(F)F)cc2)c2ccc(C(F)(F)F)cc2)CCN1 (racemic) | > 1000 µM | 83 µM | 1760 µM | 401 µM
4 | CCN1CCNC(C(=O)O)C1 (racemic) | > 1000 µM | > 1000 µM | > 1000 µM | > 1000 µM
5 | Cc1ccsc1C(=CCCN1CCNCC1C(=O)O)c1sccc1C (racemic) | 1660 µM | 195 µM | 883 µM | 1400 µM
6 | O=C(O)C1CNCCN1CCON=C(c1ccccc1)c1ccccc1 (racemic) | > 1000 µM | > 1000 µM | > 1000 µM | > 1000 µM
7 | CCN1CCNCC1C(=O)O (racemic) | > 1000 µM | > 1000 µM | > 1000 µM | > 1000 µM

Now from value to compound:

Row | IC50 (GABA transporter 3) | IC50 [1] | IC50 (GABA transporter 4) | IC50 (GABA transporter 2) | Structure (SMILES)
8 | 433 µM | 426 µM | 392 µM | 138 µM | CN(CCOC(c1ccc(C(F)(F)F)cc1)c1ccc(C(F)(F)F)cc1)[C@@H]1CCCC[C@H]1C(=O)O (racemic)
9 | > 1000 µM | 95.6 µM | > 1000 µM | > 1000 µM | Cc1ccsc1C(=CCCN1CCNC(C(=O)O)C1)c1sccc1C (racemic)
10 | 765 µM | 170 µM | 468 µM | 76.7 µM | Cc1ccsc1C(=CCCN(C)C1CCCC=C1C(=O)O)c1sccc1C (stereo in doubt; (E1)-6a)
11 | 584 µM | 403 µM | 413 µM | 67 µM | Cc1ccsc1C(=CCCN(C)C1CCCC=C1C(=O)O)c1sccc1C (stereo in doubt; (E2)-6a)
12 | 270 µM | 389 µM | 249 µM | 171 µM | CNCCC=C1c2ccccc2CCc2ccccc21 [NORTRIPTYLINE]
